Data taken from ChEMBL document CHEMBL6114952, “Synthesis and antitumor effects of novel betulinic acid derivatives bearing electrophilic moieties” (Bioorg Med Chem, 2025).
Calls of active or inactive are those of the source. The rule behind the calls is not given here.

Legend:
MCF7 [1] = experiment: Induction of apoptosis in human MCF7 cells assessed as late apoptotic cells at 2 uM incubated for 24 hrs by Annexin V-FITC/PI double staining based flow cytometric analysis (reference value: 11.8 %); format: functional
[2] = tested on: Trastuzumab-resistant JIMT-1 cell; experiment: Inhibition of AKT phosphorylation in human Trastuzumab-resistant JIMT-1 cells at 1 uM cotreated with trastuzumab by Western blot analysis; format: cell-based
[3] = tested on: Trastuzumab-resistant JIMT-1 cell; experiment: Inhibition of AKT phosphorylation in human Trastuzumab-resistant JIMT-1 cells at 1 uM by Western blot analysis; format: cell-based
MCF7 [4] = experiment: Induction of apoptosis in human MCF7 cells assessed as necrotic cells at 1 uM incubated for 24 hrs by Annexin V-FITC/PI double staining based flow cytometric analysis (reference value: 3.44 %); format: functional
[5] = target: Serine/threonine-protein kinase mTOR (Homo sapiens) (UniProt P42345); experiment: Inhibition of mTOR phosphorylation in human Trastuzumab-resistant JIMT-1 cells at 1 uM cotreated with trastuzumab by Western blot analysis; format: cell-based; conditions: Trastuzumab-resistant JIMT-1 cell
MCF7 [6] = experiment: Inhibition of cell migration in human MCF7 cells incubated for 12 to 24 hrs by wound healing assay; format: functional, cell-based; conditions: dose 1-4 µM, time 12-24 hrs
[7] = target: Serine/threonine-protein kinase mTOR (Homo sapiens) (UniProt P42345); experiment: Inhibition of mTOR phosphorylation in human Trastuzumab-resistant JIMT-1 cells at 1 uM by Western blot analysis; format: cell-based; conditions: Trastuzumab-resistant JIMT-1 cell
MCF7 [8] = experiment: Induction of apoptosis in human MCF7 cells assessed as early apoptotic cells at 1 uM incubated for 24 hrs by Annexin V-FITC/PI double staining based flow cytometric analysis (reference value: 1.56 %); format: functional
MCF7 [9] = experiment: Induction of cell cycle arrest in human MCF7 cells assessed as accumulation of cells at G2/M phase at 1 uM incubated for 24 hrs by PI/RNase staining based flow cytometric analysis (reference value: 20.8 %); format: functional
MDA-MB-231 = experiment: Antiproliferative activity against human MDA-MB-231 cells assessed as inhibition of cell proliferation incubated for 48 hrs by MTT assay; format: functional, cell-based; conditions: MDA-MB-231, 48 h
MCF7 [10] = experiment: Induction of cell cycle arrest in human MCF7 cells assessed as accumulation of cells at S phase at 2 uM incubated for 24 hrs by PI/RNase staining based flow cytometric analysis (reference value: 26.4 %); format: functional
HeLa [11] = experiment: Antiproliferative activity against human HeLa cells assessed as inhibition of cell proliferation incubated for 48 hrs by MTT assay; format: functional, cell-based
MCF7 [12] = experiment: Induction of cell cycle arrest in human MCF7 cells assessed as accumulation of cells at S phase at 0.5 uM incubated for 24 hrs by PI/RNase staining based flow cytometric analysis (reference value: 26.4 %); format: functional
MCF7 [13] = experiment: Induction of apoptosis in human MCF7 cells assessed as late apoptotic cells at 0.5 uM incubated for 24 hrs by Annexin V-FITC/PI double staining based flow cytometric analysis (reference value: 11.8 %); format: functional
JIMT-1 = experiment: Synergistic antiproliferative activity against human JIMT-1 cells assessed inhibition of cell growth at 0.25 to 1 uM by MTT assay; format: functional, cell-based; conditions: dose 0.25-1 µM
MCF7 [14] = experiment: Inhibition of AKT phosphorylation in human MCF7 cells incubated for 24 hrs by Western blot analysis; format: cell-based; conditions: dose 0.5-2 µM
[15] = target: Serine/threonine-protein kinase mTOR (Homo sapiens) (UniProt P42345); experiment: Inhibition of mTOR phosphorylation in human MCF7 cells incubated for 24 hrs by Western blot analysis; format: cell-based; conditions: dose 0.5-2 µM
HeLa [16] = experiment: Inhibition of cell migration in human HeLa cells incubated for 12 to 24 hrs by wound healing assay; format: functional, cell-based; conditions: dose 1-4 µM, time 12-24 hrs
MCF7 [17] = experiment: Induction of apoptosis in human MCF7 cells assessed as necrotic cells at 2 uM incubated for 24 hrs by Annexin V-FITC/PI double staining based flow cytometric analysis (reference value: 3.44 %); format: functional
MCF7 [18] = experiment: Induction of apoptosis in human MCF7 cells assessed as viable cells at 0.5 uM incubated for 24 hrs by Annexin V-FITC/PI double staining based flow cytometric analysis (reference value: 83.2 %); format: functional; conditions: read-out: Activity
MCF7 [19] = experiment: Induction of apoptosis in human MCF7 cells assessed as early apoptotic cells at 0.5 uM incubated for 24 hrs by Annexin V-FITC/PI double staining based flow cytometric analysis (reference value: 1.56 %); format: functional
[20] = Toxicity in female BALB/c mouse xenografted with human MCF7 cells assessed as body weight loss at 5 mg/kg, iv measured daily for 14 days; format: organism-based; conditions: in vivo, 336 h, time 14 day
MCF7 [21] = experiment: Induction of cell cycle arrest in human MCF7 cells assessed as accumulation of cells at G1 phase at 1 uM incubated for 24 hrs by PI/RNase staining based flow cytometric analysis (reference value: 52.7 %); format: functional
[22] = Antiproliferative activity against human Trastuzumab-resistant JIMT-1 cells at 0.5 uM in presence of trastuzumab by MTT assay relative to control; format: functional, Trastuzumab-resistant JIMT-1 cell
MCF7 [23] = experiment: Antiproliferative activity against human MCF7 cells assessed as inhibition of cell proliferation incubated for 48 hrs by MTT assay; format: functional, cell-based; conditions: MCF7, 48 h
MCF7 [24] = experiment: Induction of apoptosis in human MCF7 cells assessed as late apoptotic cells at 1 uM incubated for 24 hrs by Annexin V-FITC/PI double staining based flow cytometric analysis (reference value: 11.8 %); format: functional
[25] = Antiproliferative activity against human Trastuzumab-resistant JIMT-1 cells at 0.5 uM by MTT assay relative to control; format: functional, Trastuzumab-resistant JIMT-1 cell
MCF7 [26] = experiment: Antitumor activity against human MCF7 cells xenografted in female BALB/c mouse assessed as tumor growth inhibition at 5 mg/kg, iv administered daily for 14 days relative to control; format: functional; conditions: MCF7, 336 h, time 14 day, read-out: TGI
MCF7 [27] = experiment: Induction of cell cycle arrest in human MCF7 cells assessed as accumulation of cells at G1 phase at 2 uM incubated for 24 hrs by PI/RNase staining based flow cytometric analysis (reference value: 52.7 %); format: functional
MCF7 [28] = experiment: Induction of cell cycle arrest in human MCF7 cells assessed as accumulation of cells at G2/M phase at 0.5 uM incubated for 24 hrs by PI/RNase staining based flow cytometric analysis (reference value: 20.8 %); format: functional
MCF7 [29] = experiment: Induction of cell cycle arrest in human MCF7 cells assessed as accumulation of cells at G2/M phase at 2 uM incubated for 24 hrs by PI/RNase staining based flow cytometric analysis (reference value: 20.8 %); format: functional
MCF7 [30] = experiment: Induction of cell cycle arrest in human MCF7 cells assessed as accumulation of cells at S phase at 1 uM incubated for 24 hrs by PI/RNase staining based flow cytometric analysis (reference value: 26.4 %); format: functional
MCF7 [31] = experiment: Induction of ROS generation in human MCF7 cells assessed as increase in intracellular ROS level at 0.5 to 2 uM incubated for 24 hrs by DCFH-DA staining based microscopic analysis; format: functional, cell-based; conditions: dose 0.5-2 µM
MCF7 [32] = experiment: Induction of cell cycle arrest in human MCF7 cells assessed as accumulation of cells at G1 phase at 0.5 uM incubated for 24 hrs by PI/RNase staining based flow cytometric analysis (reference value: 52.7 %); format: functional
MCF7 [33] = experiment: Induction of apoptosis in human MCF7 cells assessed as early apoptotic cells at 2 uM incubated for 24 hrs by Annexin V-FITC/PI double staining based flow cytometric analysis (reference value: 1.56 %); format: functional
MCF7 [34] = experiment: Induction of apoptosis in human MCF7 cells assessed as viable cells at 2 uM incubated for 24 hrs by Annexin V-FITC/PI double staining based flow cytometric analysis (reference value: 83.2 %); format: functional; conditions: read-out: Activity
MCF7 [35] = experiment: Induction of autophagy in human MCF7 cells incubated for 24 hrs by MDC probe based confocal microscopy analysis; format: functional, cell-based; conditions: dose 0.5-2 µM
MCF7 [36] = experiment: Induction of apoptosis in human MCF7 cells assessed as viable cells at 1 uM incubated for 24 hrs by Annexin V-FITC/PI double staining based flow cytometric analysis (reference value: 83.2 %); format: functional; conditions: read-out: Activity
MCF7 [37] = experiment: Inhibition of colony formation in human MCF7 cells assessed as decrease in colonies incubated for 10 days with replacement of medium for every 3 days by crystal violet staining based assay; format: functional, cell-based; conditions: dose 0.5-2 µM, time 10.0 day
MCF7 [38] = experiment: Induction of apoptosis in human MCF7 cells assessed as necrotic cells at 0.5 uM incubated for 24 hrs by Annexin V-FITC/PI double staining based flow cytometric analysis (reference value: 3.44 %); format: functional

- inhibition [5]: Active
- inhibition [7]: Active
- IC50 (MDA-MB-231): 1660 nM
- IC50 (HeLa [11]): 1110 nM
- inhibition [15]: Dose-dependent-effect
- IC50 (MCF7 [23]): 1090 nM
SMILES: C=C(C)[C@@H]1CC[C@]2(C(=O)O)CC[C@]3(C)[C@H](CC[C@@H]4[C@@]5(C)CC[C@H](OC(=O)N6CCN(C(=O)CCl)CC6)C(C)(C)[C@@H]5CC[C@]43C)[C@@H]12
- Activity (MCF7 [1]): 22%
- inhibition [2]: Active
- inhibition [3]: Active
- Activity (MCF7 [4]): 3.93%
- inhibition (MCF7 [6]): Dose-dependent-effect
- Activity (MCF7 [8]): 1.99%
- Activity (MCF7 [9]): 24.3%
- Activity (MCF7 [10]): 19.8%
- Activity (MCF7 [12]): 22%
- Activity (MCF7 [13]): 15.3%
- Activity (JIMT-1): Active
- inhibition (MCF7 [14]): Dose-dependent-effect
- inhibition (HeLa [16]): Dose-dependent-effect
- Activity (MCF7 [17]): 2.93%
- viability at 0.5 µM (MCF7 [18]): 79.7%
- Activity (MCF7 [19]): 2.47%
- Activity [20]: Non-toxic
- Activity (MCF7 [21]): 56.4%
- Activity [22]: 59%
- Activity (MCF7 [24]): 19.2%
- Activity [25]: 19.9%
- inhibition in vivo at 5 mg/kg (MCF7 [26]): 36%
- Activity (MCF7 [27]): 53.4%
- Activity (MCF7 [28]): 23.4%
- Activity (MCF7 [29]): 27.2%
- Activity (MCF7 [30]): 19.1%
- Activity (MCF7 [31]): Active
- Activity (MCF7 [32]): 54.7%
- Activity (MCF7 [33]): 2.72%
- viability at 2 µM (MCF7 [34]): 72.3%
- Activity (MCF7 [35]): Dose-dependent-effect
- viability at 1 µM (MCF7 [36]): 74.9%
- inhibition (MCF7 [37]): Dose-dependent-effect
- Activity (MCF7 [38]): 2.49%
